{"source": "ChEMBL document CHEMBL2406986", "about": "“Correlation of hydrogen-bonding propensity and anticancer profile of tetrazole-tethered combretastatin analogues” (Bioorg Med Chem Lett, 2013)", "key": {"MCF7": {"test_system": "MCF7", "experiment": "Cytotoxicity against human MCF7 cells assessed as growth inhibition after 48 hrs by MTT assay", "type": "functional, cell-based", "conditions": "MCF7, 48 h"}, "HeLa": {"test_system": "HeLa", "experiment": "Cytotoxicity against human HeLa cells assessed as growth inhibition after 48 hrs by MTT assay", "type": "functional, cell-based"}, "[1]": {"experiment": "Inhibition of bovine brain tubulin assembly preincubated for 15 mins followed by GTP addition measured for 20 mins by spectrophotometric analysis", "parameters": "species or system Bos taurus"}, "A549": {"test_system": "A549", "experiment": "Cytotoxicity against human A549 cells assessed as growth inhibition after 48 hrs by MTT assay", "type": "functional, cell-based", "conditions": "A549, 48 h"}, "[2]": {"experiment": "Cytotoxicity against human H1299 cells assessed as growth inhibition after 48 hrs by MTT assay", "type": "functional, cell-based", "conditions": "NCI-H1299, 48 h"}, "Bos taurus": {"species_on_record": "Bos taurus", "experiment": "Displacement of [3H]colchicine from bovine brain tubulin at 5 uM after 10 mins relative to control"}}, "data": [{"smiles": "COc1ccc(-c2nnnn2-c2cc(OC)c(OC)c(OC)c2O)c(O)c1", "values": [{"measurement": "IC50", "setting": "MCF7", "result": 46, "unit": "µM"}, {"measurement": "IC50", "setting": "HeLa", "result": 45, "unit": "µM"}, {"measurement": "IC50", "setting": "[1]", "result": "> 20", "unit": "µM"}, {"measurement": "IC50", "setting": "A549", "result": 50, "unit": "µM"}, {"measurement": "IC50", "setting": "[2]", "result": 49, "unit": "µM"}]}, {"smiles": "COc1ccc(-c2nnnn2-c2cc(OC)c(OC)c(OC)c2)c(O)c1", "values": [{"measurement": "IC50", "setting": "MCF7", "result": 8.2, "unit": "µM"}, {"measurement": "inhibition", "setting": "Bos taurus", "result": 52, "unit": "%"}, {"measurement": "IC50", "setting": "HeLa", "result": 2.4, "unit": "µM"}, {"measurement": "IC50", "setting": "[1]", "result": 2.7, "unit": "µM"}, {"measurement": "IC50", "setting": "A549", "result": 6.4, "unit": "µM"}, {"measurement": "IC50", "setting": "[2]", "result": 7.9, "unit": "µM"}]}, {"smiles": "COc1ccc(-c2nnnn2-c2cc(OC)c(OC)c(OC)c2)c(O)c1O", "values": [{"measurement": "IC50", "setting": "MCF7", "result": 6.6, "unit": "µM"}, {"measurement": "inhibition", "setting": "Bos taurus", "result": 62, "unit": "%"}, {"measurement": "IC50", "setting": "HeLa", "result": 0.95, "unit": "µM"}, {"measurement": "IC50", "setting": "[1]", "result": 2.5, "unit": "µM"}, {"measurement": "IC50", "setting": "A549", "result": 6.7, "unit": "µM"}, {"measurement": "IC50", "setting": "[2]", "result": 8.8, "unit": "µM"}]}, {"smiles": "COc1ccc(-c2nnnn2-c2cc(OC)c(OC)c(OC)c2O)cc1", "values": [{"measurement": "IC50", "setting": "MCF7", "result": 72, "unit": "µM"}, {"measurement": "IC50", "setting": "HeLa", "result": 92, "unit": "µM"}, {"measurement": "IC50", "setting": "[1]", "result": "> 20", "unit": "µM"}, {"measurement": "IC50", "setting": "A549", "result": "> 100", "unit": "µM"}, {"measurement": "IC50", "setting": "[2]", "result": 40, "unit": "µM"}]}, {"smiles": "COc1ccc(/C=C\\c2cc(OC)c(OC)c(OC)c2)cc1O", "note": "[COMBRETASTATIN A4]", "values": [{"measurement": "IC50", "setting": "MCF7", "result": 0.098, "unit": "µM"}, {"measurement": "IC50", "setting": "A549", "result": 0.28, "unit": "µM"}, {"measurement": "IC50", "setting": "[2]", "result": 0.0062, "unit": "µM"}]}, {"smiles": "COc1ccc(-c2nnnn2-c2cc(OC)c(OC)c(OC)c2)c(O)c1N", "values": [{"measurement": "IC50", "setting": "MCF7", "result": 2.9, "unit": "µM"}, {"measurement": "inhibition", "setting": "Bos taurus", "result": 69, "unit": "%"}, {"measurement": "IC50", "setting": "HeLa", "result": 0.9, "unit": "µM"}, {"measurement": "IC50", "setting": "[1]", "result": 2.2, "unit": "µM"}, {"measurement": "IC50", "setting": "A549", "result": 0.52, "unit": "µM"}, {"measurement": "IC50", "setting": "[2]", "result": 4, "unit": "µM"}]}]}
